Test results published in PubChem BioAssay (NCI).
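Growth conditions: 96-well plates. Treatment: test compound, 48 hours, 5 concentrations. Analysis: linear interpolation between bracketing concentrations; unreached endpoints set to highest concentration. Definition used: TGI = concentration required for complete inhibition of growth.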

Experiments:
Experiment in all cases: DTP human tumour cell line panel, 48 h
786-0 renal = system: 786-0 renal
A498 renal = system: A498 renal
A549 NSCLC = system: A549 NSCLC
ACHN renal = system: ACHN renal
CAKI-1 renal = system: CAKI-1 renal
CCRF-CEM leukemia = system: CCRF-CEM leukemia
COLO 205 colon = system: COLO 205 colon
DLD-1 colon = system: DLD-1 colon
DMS 273 small cell lung = system: DMS 273 small cell lung
EKVX NSCLC = system: EKVX NSCLC
HCC-2998 colon = system: HCC-2998 colon
HCT-116 colon = system: HCT-116 colon
HCT-15 colon = system: HCT-15 colon
HL-60(TB) leukemia = system: HL-60(TB) leukemia
HOP-18 NSCLC = system: HOP-18 NSCLC
HOP-62 NSCLC = system: HOP-62 NSCLC
HOP-92 NSCLC = system: HOP-92 NSCLC
HT29 colon = system: HT29 colon
IGROV1 ovarian = system: IGROV1 ovarian
K-562 leukemia = system: K-562 leukemia
KM12 colon = system: KM12 colon
KM20L2 colon = system: KM20L2 colon
LOX IMVI melanoma = system: LOX IMVI melanoma
LXFL 529 NSCLC = system: LXFL 529 NSCLC
M14 melanoma = system: M14 melanoma
M19-MEL melanoma = system: M19-MEL melanoma
MALME-3M melanoma = system: MALME-3M melanoma
MOLT-4 leukemia = system: MOLT-4 leukemia
NCI-H226 lung = system: NCI-H226 lung
NCI-H23 lung = system: NCI-H23 lung
NCI-H460 lung = system: NCI-H460 lung
NCI-H522 lung = system: NCI-H522 lung
OVCAR-3 ovarian = system: OVCAR-3 ovarian
OVCAR-4 ovarian = system: OVCAR-4 ovarian
OVCAR-5 ovarian = system: OVCAR-5 ovarian
OVCAR-8 ovarian = system: OVCAR-8 ovarian
RPMI-8226 leukemia = system: RPMI-8226 leukemia
RXF 393 renal = system: RXF 393 renal
SF-268 CNS = system: SF-268 CNS
SF-295 CNS = system: SF-295 CNS
SF-539 CNS = system: SF-539 CNS
SK-MEL-2 melanoma = system: SK-MEL-2 melanoma
SK-MEL-28 melanoma = system: SK-MEL-28 melanoma
SK-MEL-5 melanoma = system: SK-MEL-5 melanoma
SK-OV-3 ovarian = system: SK-OV-3 ovarian
SN12C renal = system: SN12C renal
SNB-19 CNS = system: SNB-19 CNS
SNB-75 CNS = system: SNB-75 CNS
SNB-78 CNS = system: SNB-78 CNS
SR leukemia = system: SR leukemia
SW-620 colon = system: SW-620 colon
TK-10 renal = system: TK-10 renal
U251 CNS = system: U251 CNS
UACC-257 melanoma = system: UACC-257 melanoma
UACC-62 melanoma = system: UACC-62 melanoma
UO-31 renal = system: UO-31 renal
XF 498 CNS = system: XF 498 CNS
DMS 114 small cell lung = system: DMS 114 small cell lung
BT-549 breast = system: BT-549 breast
DU-145 prostate = system: DU-145 prostate
HS 578T breast = system: HS 578T breast
MCF7 breast = system: MCF7 breast
MDA-MB-231 breast = system: MDA-MB-231 breast
MDA-MB-435 = system: MDA-MB-435
MDA-N = system: MDA-N
NCI/ADR-RES ovarian = system: NCI/ADR-RES ovarian
PC-3 prostate = system: PC-3 prostate
T-47D breast = system: T-47D breast

`NC(=O)NO.O.O.O.O.O.O.O.O.O.O.O.[Ge].[Ge].[Ge].[Ge].[Ge].[O]=[Ge].[O]=[Ge].[O]=[Ge].[O]=[Ge].[O]=[Ge][OH]` gave a TGI (786-0 renal) of over 100 µM, a TGI (A498 renal) of over 100 µM and a TGI (A549 NSCLC) of over 100 µM. The TGI (ACHN renal) was over 100 µM, the TGI (CAKI-1 renal) was over 100 µM and the TGI (CCRF-CEM leukemia) was over 81.6 µM. For the same compound, the TGI (COLO 205 colon) was over 100 µM, the TGI (DLD-1 colon) was over 100 µM and the TGI (DMS 273 small cell lung) was over 100 µM. It also gave a TGI (EKVX NSCLC) of over 100 µM, a TGI (HCC-2998 colon) of over 100 µM and a TGI (HCT-116 colon) of over 100 µM. The TGI (HCT-15 colon) was over 100 µM, the TGI (HL-60(TB) leukemia) was 12.6 µM and the TGI (HOP-18 NSCLC) was over 100 µM. It also gave a TGI (HOP-62 NSCLC) of over 100 µM, a TGI (HOP-92 NSCLC) of over 100 µM and a TGI (HT29 colon) of over 100 µM. It also gave a TGI (IGROV1 ovarian) of over 100 µM, a TGI (K-562 leukemia) of over 100 µM and a TGI (KM12 colon) of over 100 µM. The TGI (KM20L2 colon) was over 100 µM, the TGI (LOX IMVI melanoma) was over 100 µM and the TGI (LXFL 529 NSCLC) was over 100 µM. For the same compound, the TGI (M14 melanoma) was over 89 µM, the TGI (M19-MEL melanoma) was over 100 µM and the TGI (MALME-3M melanoma) was over 100 µM. For the same compound, the TGI (MOLT-4 leukemia) was over 100 µM, the TGI (NCI-H226 lung) was over 100 µM and the TGI (NCI-H23 lung) was over 100 µM. The TGI (NCI-H460 lung) was over 100 µM, the TGI (NCI-H522 lung) was over 100 µM and the TGI (OVCAR-3 ovarian) was over 100 µM. It also gave a TGI (OVCAR-4 ovarian) of over 100 µM, a TGI (OVCAR-5 ovarian) of over 100 µM and a TGI (OVCAR-8 ovarian) of over 100 µM. For the same compound, the TGI (RPMI-8226 leukemia) was over 100 µM, the TGI (RXF 393 renal) was over 100 µM and the TGI (SF-268 CNS) was over 100 µM. It also gave a TGI (SF-295 CNS) of over 100 µM, a TGI (SF-539 CNS) of over 100 µM and a TGI (SK-MEL-2 melanoma) of over 100 µM. For the same compound, the TGI (SK-MEL-28 melanoma) was over 100 µM, the TGI (SK-MEL-5 melanoma) was over 100 µM and the TGI (SK-OV-3 ovarian) was over 100 µM. It also gave a TGI (SN12C renal) of over 100 µM, a TGI (SNB-19 CNS) of over 100 µM and a TGI (SNB-75 CNS) of over 100 µM. For the same compound, the TGI (SNB-78 CNS) was over 100 µM, the TGI (SR leukemia) was over 100 µM and the TGI (SW-620 colon) was over 100 µM. The TGI (TK-10 renal) was over 100 µM, the TGI (U251 CNS) was 69.9 µM and the TGI (UACC-257 melanoma) was over 100 µM. For the same compound, the TGI (UACC-62 melanoma) was 53.5 µM, the TGI (UO-31 renal) was over 100 µM and the TGI (XF 498 CNS) was over 100 µM.

`COC(=O)/C(C#N)=C1\NC(=O)c2ccccc21` showed a TGI (786-0 renal) of over 100 µM, a TGI (A498 renal) of over 100 µM and a TGI (A549 NSCLC) of over 100 µM. It also gave a TGI (ACHN renal) of over 100 µM, a TGI (CCRF-CEM leukemia) of over 100 µM and a TGI (COLO 205 colon) of over 100 µM. It also gave a TGI (DLD-1 colon) of over 100 µM, a TGI (DMS 114 small cell lung) of over 100 µM and a TGI (DMS 273 small cell lung) of over 100 µM. For the same compound, the TGI (EKVX NSCLC) was over 100 µM, the TGI (HCC-2998 colon) was over 100 µM and the TGI (HCT-116 colon) was over 100 µM. It also gave a TGI (HCT-15 colon) of over 100 µM, a TGI (HL-60(TB) leukemia) of over 100 µM and a TGI (HOP-18 NSCLC) of over 100 µM. For the same compound, the TGI (HOP-62 NSCLC) was over 100 µM, the TGI (HOP-92 NSCLC) was over 100 µM and the TGI (HT29 colon) was over 100 µM. The TGI (IGROV1 ovarian) was over 100 µM, the TGI (K-562 leukemia) was over 100 µM and the TGI (KM12 colon) was over 100 µM. For the same compound, the TGI (KM20L2 colon) was over 100 µM, the TGI (LOX IMVI melanoma) was over 100 µM and the TGI (LXFL 529 NSCLC) was over 100 µM. For the same compound, the TGI (M14 melanoma) was over 100 µM, the TGI (M19-MEL melanoma) was over 100 µM and the TGI (MALME-3M melanoma) was over 100 µM. It also gave a TGI (MOLT-4 leukemia) of over 100 µM, a TGI (NCI-H226 lung) of over 100 µM and a TGI (NCI-H23 lung) of over 100 µM. For the same compound, the TGI (NCI-H460 lung) was over 100 µM, the TGI (NCI-H522 lung) was over 100 µM and the TGI (OVCAR-3 ovarian) was over 100 µM. It also gave a TGI (OVCAR-4 ovarian) of over 100 µM, a TGI (OVCAR-5 ovarian) of over 100 µM and a TGI (OVCAR-8 ovarian) of over 100 µM. The TGI (RPMI-8226 leukemia) was over 100 µM, the TGI (RXF 393 renal) was over 100 µM and the TGI (SF-268 CNS) was over 100 µM. For the same compound, the TGI (SF-295 CNS) was over 100 µM, the TGI (SF-539 CNS) was over 100 µM and the TGI (SK-MEL-28 melanoma) was over 100 µM. The TGI (SK-MEL-5 melanoma) was over 100 µM, the TGI (SK-OV-3 ovarian) was over 100 µM and the TGI (SN12C renal) was over 100 µM. The TGI (SNB-19 CNS) was over 100 µM, the TGI (SNB-75 CNS) was 76.9 µM and the TGI (SNB-78 CNS) was over 100 µM. The TGI (SR leukemia) was over 100 µM, the TGI (SW-620 colon) was over 100 µM and the TGI (TK-10 renal) was over 100 µM. For the same compound, the TGI (U251 CNS) was over 100 µM, the TGI (UACC-257 melanoma) was over 100 µM and the TGI (UACC-62 melanoma) was over 100 µM. It also gave a TGI (UO-31 renal) of over 100 µM.

`CCCN(C(=O)c1ccccc1)C(C#N)c1ccc(C(C#N)N(CCC)C(=O)c2ccccc2)cc1` (centres undefined) gave a TGI (786-0 renal) of over 100 µM, a TGI (A498 renal) of over 100 µM and a TGI (A549 NSCLC) of over 100 µM. For the same compound, the TGI (ACHN renal) was over 100 µM, the TGI (BT-549 breast) was over 100 µM and the TGI (CAKI-1 renal) was over 100 µM. It also gave a TGI (CCRF-CEM leukemia) of over 100 µM, a TGI (COLO 205 colon) of over 100 µM and a TGI (DU-145 prostate) of over 100 µM. For the same compound, the TGI (EKVX NSCLC) was over 100 µM, the TGI (HCC-2998 colon) was over 100 µM and the TGI (HCT-116 colon) was over 100 µM. It also gave a TGI (HCT-15 colon) of over 100 µM, a TGI (HL-60(TB) leukemia) of over 100 µM and a TGI (HOP-62 NSCLC) of 99.3 µM. It also gave a TGI (HOP-92 NSCLC) of 64.4 µM, a TGI (HS 578T breast) of 86.7 µM and a TGI (HT29 colon) of over 100 µM. It also gave a TGI (IGROV1 ovarian) of over 100 µM, a TGI (K-562 leukemia) of over 100 µM and a TGI (KM12 colon) of over 100 µM. For the same compound, the TGI (LOX IMVI melanoma) was over 100 µM, the TGI (M14 melanoma) was over 100 µM and the TGI (MALME-3M melanoma) was over 100 µM. It also gave a TGI (MCF7 breast) of over 100 µM, a TGI (MDA-MB-231 breast) of over 100 µM and a TGI (MDA-MB-435) of over 100 µM. The TGI (MDA-N) was over 100 µM, the TGI (MOLT-4 leukemia) was over 100 µM and the TGI (NCI-H226 lung) was 65.3 µM. The TGI (NCI-H23 lung) was over 100 µM, the TGI (NCI-H522 lung) was over 100 µM and the TGI (NCI/ADR-RES ovarian) was over 100 µM. For the same compound, the TGI (OVCAR-3 ovarian) was over 100 µM, the TGI (OVCAR-4 ovarian) was 66.7 µM and the TGI (OVCAR-5 ovarian) was over 100 µM. For the same compound, the TGI (OVCAR-8 ovarian) was over 100 µM, the TGI (PC-3 prostate) was over 100 µM and the TGI (RPMI-8226 leukemia) was over 100 µM. For the same compound, the TGI (RXF 393 renal) was over 100 µM, the TGI (SF-268 CNS) was over 100 µM and the TGI (SF-295 CNS) was over 100 µM. For the same compound, the TGI (SF-539 CNS) was 87.6 µM, the TGI (SK-MEL-2 melanoma) was over 100 µM and the TGI (SK-MEL-5 melanoma) was over 100 µM. It also gave a TGI (SK-OV-3 ovarian) of over 100 µM, a TGI (SN12C renal) of over 100 µM and a TGI (SNB-19 CNS) of 74.9 µM. It also gave a TGI (SNB-75 CNS) of 73.3 µM, a TGI (SR leukemia) of over 100 µM and a TGI (SW-620 colon) of over 100 µM. The TGI (T-47D breast) was 85.7 µM, the TGI (TK-10 renal) was over 100 µM and the TGI (U251 CNS) was over 100 µM. It also gave a TGI (UACC-257 melanoma) of over 100 µM, a TGI (UACC-62 melanoma) of over 100 µM and a TGI (UO-31 renal) of over 100 µM.
